Source: the supplement of paper PMC10307832

Assays:
Assay in all cases: relative viability (nuclei count vs DMSO), 5 days (fraction); higher = more cells survive
[1] = tested on: NCI-H596
In short: (§1)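 Dosing by pin tool came one day after lung cancer cell lines were seeded in 1536-well plates, using either one drug or a fixed anchor-drug dose plus five library-drug doses (not always all listed) in √10 steps. After 5 days, nuclei were counted on 4× images. Relative viability is treated-well nuclei count divided by vehicle-well nuclei count, and values are medians of duplicate plates.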

[2] = tested on: EPLC-272H
In short: as §1

[3] = tested on: NCI-H2087
In short: as §1

[4] = tested on: HARA
In short: as §1

[5] = tested on: NCI-H441
In short: as §1

[6] = tested on: NCI-H661
In short: as §1

[7] = tested on: PC-14
In short: as §1

[8] = tested on: NCI-H1793
In short: as §1

[9] = tested on: NCI-H2126
In short: as §1

[10] = tested on: HCC-78
In short: as §1

[11] = tested on: LCLC-97TM1
In short: as §1

[12] = tested on: LXF-289
In short: as §1

[13] = tested on: HOP-62
In short: as §1

[14] = tested on: COR-L23
In short: as §1

[15] = tested on: H3255
In short: as §1

[16] = tested on: NCI-H1395
In short: as §1

[17] = tested on: NCI-H3122
In short: as §1

[18] = tested on: NCI-H2085
In short: as §1

[19] = tested on: NCI-H1666
In short: as §1

[20] = tested on: NCI-H1437
In short: as §1

[21] = tested on: NCI-H1944
In short: as §1

CN1CCN(CCOc2cc(OC3CCOCC3)c3c(Nc4c(Cl)ccc5c4OCO5)ncnc3c2)CC1 [Saracatinib] + Cc1nc(NC(=O)N2CCC[C@H]2C(N)=O)sc1-c1ccnc(C(C)(C)C(F)(F)F)c1 [Alpelisib] (partner 2 µM)
relative viability ([1]; first compound 0.02 µM): 0.459 | relative viability ([1]; first compound 0.2 µM): 0.424 | relative viability ([1]; first compound 0.6325 µM): 0.448 | relative viability ([1]; first compound 2 µM): 0.403 | relative viability ([2]; first compound 0.02 µM): 1.03 | relative viability ([2]; first compound 0.2 µM): 0.732 | relative viability ([2]; first compound 0.6325 µM): 0.942 | relative viability ([2]; first compound 2 µM): 0.821 | relative viability ([3]; first compound 0.02 µM): 1.13 | relative viability ([3]; first compound 0.2 µM): 0.934 | relative viability ([3]; first compound 0.6325 µM): 1.41 | relative viability ([3]; first compound 2 µM): 1.04 | relative viability ([4]; first compound 0.02 µM): 0.904 | relative viability ([4]; first compound 0.6325 µM): 0.707 | relative viability ([4]; first compound 2 µM): 0.513 | relative viability ([5]; first compound 0.02 µM): 0.715 | relative viability ([5]; first compound 0.2 µM): 0.544 | relative viability ([5]; first compound 0.6325 µM): 1.03 | relative viability ([5]; first compound 2 µM): 0.772 | relative viability ([6]; first compound 0.02 µM): 0.838 | relative viability ([6]; first compound 0.2 µM): 0.329 | relative viability ([6]; first compound 0.6325 µM): 0.357 | relative viability ([6]; first compound 2 µM): 0.377 | relative viability ([7]; first compound 0.02 µM): 0.996 | relative viability ([7]; first compound 0.2 µM): 0.681 | relative viability ([7]; first compound 0.6325 µM): 0.46 | relative viability ([7]; first compound 2 µM): 0.172 | relative viability ([8]; first compound 0.02 µM): 0.722 | relative viability ([8]; first compound 0.2 µM): 0.75 | relative viability ([8]; first compound 0.6325 µM): 0.793 | relative viability ([8]; first compound 2 µM): 0.74 | relative viability ([9]; first compound 0.02 µM): 0.751 | relative viability ([9]; first compound 0.2 µM): 0.654 | relative viability ([9]; first compound 0.6325 µM): 0.749 | relative viability ([9]; first compound 2 µM): 0.622 | relative viability ([10]; first compound 0.02 µM): 0.29 | relative viability ([10]; first compound 0.2 µM): 0.328 | relative viability ([10]; first compound 0.6325 µM): 0.479 | relative viability ([10]; first compound 2 µM): 0.323 | relative viability ([11]; first compound 0.02 µM): 0.198 | relative viability ([11]; first compound 0.2 µM): 0.195 | relative viability ([11]; first compound 0.6325 µM): 0.357 | relative viability ([11]; first compound 2 µM): 0.282 | relative viability ([12]; first compound 0.02 µM): 1.03 | relative viability ([12]; first compound 0.2 µM): 0.908 | relative viability ([12]; first compound 0.6325 µM): 1.02 | relative viability ([12]; first compound 2 µM): 0.985 | relative viability ([13]; first compound 0.02 µM): 0.989 | relative viability ([13]; first compound 0.2 µM): 0.782 | relative viability ([13]; first compound 0.6325 µM): 0.801 | relative viability ([13]; first compound 2 µM): 0.749 | relative viability ([14]; first compound 0.02 µM): 0.755 | relative viability ([14]; first compound 0.2 µM): 0.621 | relative viability ([14]; first compound 0.6325 µM): 0.591 | relative viability ([14]; first compound 2 µM): 0.603 | relative viability ([15]; first compound 0.02 µM): 0.624 | relative viability ([15]; first compound 0.2 µM): 0.556 | relative viability ([15]; first compound 0.6325 µM): 0.366 | relative viability ([15]; first compound 2 µM): 0.166 | relative viability ([16]; first compound 0.02 µM): 1.6 | relative viability ([16]; first compound 0.2 µM): 1.06 | relative viability ([16]; first compound 0.6325 µM): 0.956 | relative viability ([16]; first compound 2 µM): 0.851 | relative viability ([17]; first compound 0.02 µM): 0.822 | relative viability ([17]; first compound 0.6325 µM): 0.664 | relative viability ([17]; first compound 2 µM): 0.46 | relative viability ([18]; first compound 0.02 µM): 0.957 | relative viability ([18]; first compound 0.2 µM): 0.85 | relative viability ([18]; first compound 0.6325 µM): 0.91 | relative viability ([18]; first compound 2 µM): 0.888 | relative viability ([19]; first compound 0.02 µM): 1.22 | relative viability ([19]; first compound 0.2 µM): 0.936 | relative viability ([19]; first compound 0.6325 µM): 1.2 | relative viability ([19]; first compound 2 µM): 0.837 | relative viability ([20]; first compound 0.02 µM): 0.987 | relative viability ([20]; first compound 0.2 µM): 0.894 | relative viability ([20]; first compound 0.6325 µM): 0.845 | relative viability ([20]; first compound 2 µM): 0.895 | relative viability ([21]; first compound 0.02 µM): 0.847 | relative viability ([21]; first compound 0.6325 µM): 0.808 | relative viability ([21]; first compound 2 µM): 0.524

CN1CCN(CCOc2cc(OC3CCOCC3)c3c(Nc4c(Cl)ccc5c4OCO5)ncnc3c2)CC1 [Saracatinib] + C[C@]1(O)C[C@@H](c2nc(-c3ccc4ccc(-c5ccccc5)nc4c3)c3c(N)nccn32)C1 [Linsitinib] (partner 1 µM)
relative viability ([1]; first compound 0.02 µM): 1.01 | relative viability ([1]; first compound 0.2 µM): 0.85 | relative viability ([1]; first compound 0.6325 µM): 0.877 | relative viability ([1]; first compound 2 µM): 0.737 | relative viability ([2]; first compound 0.02 µM): 1.23 | relative viability ([2]; first compound 0.2 µM): 1.28 | relative viability ([2]; first compound 0.6325 µM): 1.12 | relative viability ([2]; first compound 2 µM): 1.07 | relative viability ([3]; first compound 0.02 µM): 1.11 | relative viability ([3]; first compound 0.2 µM): 0.947 | relative viability ([3]; first compound 0.6325 µM): 1.2 | relative viability ([3]; first compound 2 µM): 1.12 | relative viability ([4]; first compound 0.02 µM): 0.917 | relative viability ([4]; first compound 0.6325 µM): 0.787 | relative viability ([4]; first compound 2 µM): 0.629 | relative viability ([5]; first compound 0.02 µM): 0.508 | relative viability ([5]; first compound 0.2 µM): 0.515 | relative viability ([5]; first compound 0.6325 µM): 0.682 | relative viability ([5]; first compound 2 µM): 0.604 | relative viability ([6]; first compound 0.02 µM): 0.525 | relative viability ([6]; first compound 0.2 µM): 0.598 | relative viability ([6]; first compound 0.6325 µM): 0.571 | relative viability ([6]; first compound 2 µM): 0.376 | relative viability ([7]; first compound 0.02 µM): 0.952 | relative viability ([7]; first compound 0.2 µM): 0.708 | relative viability ([7]; first compound 0.6325 µM): 0.304 | relative viability ([7]; first compound 2 µM): 0.166 | relative viability ([8]; first compound 0.02 µM): 0.876 | relative viability ([8]; first compound 0.2 µM): 0.447 | relative viability ([8]; first compound 0.6325 µM): 0.993 | relative viability ([8]; first compound 2 µM): 0.783 | relative viability ([9]; first compound 0.02 µM): 0.74 | relative viability ([9]; first compound 0.2 µM): 0.649 | relative viability ([9]; first compound 0.6325 µM): 0.612 | relative viability ([9]; first compound 2 µM): 0.549 | relative viability ([10]; first compound 0.02 µM): 0.52 | relative viability ([10]; first compound 0.2 µM): 0.505 | relative viability ([10]; first compound 0.6325 µM): 0.753 | relative viability ([10]; first compound 2 µM): 0.497 | relative viability ([11]; first compound 0.02 µM): 0.17 | relative viability ([11]; first compound 0.2 µM): 0.127 | relative viability ([11]; first compound 0.6325 µM): 0.197 | relative viability ([11]; first compound 2 µM): 0.272 | relative viability ([12]; first compound 0.02 µM): 0.979 | relative viability ([12]; first compound 0.2 µM): 0.92 | relative viability ([12]; first compound 0.6325 µM): 0.968 | relative viability ([12]; first compound 2 µM): 0.963 | relative viability ([13]; first compound 0.02 µM): 1.02 | relative viability ([13]; first compound 0.2 µM): 0.731 | relative viability ([13]; first compound 0.6325 µM): 1.35 | relative viability ([13]; first compound 2 µM): 1.01 | relative viability ([14]; first compound 0.02 µM): 0.86 | relative viability ([14]; first compound 0.2 µM): 0.558 | relative viability ([14]; first compound 0.6325 µM): 0.789 | relative viability ([14]; first compound 2 µM): 0.584 | relative viability ([15]; first compound 0.02 µM): 0.994 | relative viability ([15]; first compound 0.2 µM): 0.986 | relative viability ([15]; first compound 0.6325 µM): 0.647 | relative viability ([15]; first compound 2 µM): 0.233 | relative viability ([16]; first compound 0.02 µM): 1.08 | relative viability ([16]; first compound 0.2 µM): 0.995 | relative viability ([16]; first compound 0.6325 µM): 1.27 | relative viability ([16]; first compound 2 µM): 0.876 | relative viability ([17]; first compound 0.02 µM): 1.05 | relative viability ([17]; first compound 0.6325 µM): 0.842 | relative viability ([17]; first compound 2 µM): 0.767 | relative viability ([18]; first compound 0.02 µM): 0.952 | relative viability ([18]; first compound 0.2 µM): 0.901 | relative viability ([18]; first compound 0.6325 µM): 0.881 | relative viability ([18]; first compound 2 µM): 0.898 | relative viability ([19]; first compound 0.02 µM): 0.81 | relative viability ([19]; first compound 0.2 µM): 0.909 | relative viability ([19]; first compound 0.6325 µM): 0.815 | relative viability ([19]; first compound 2 µM): 0.844 | relative viability ([20]; first compound 0.02 µM): 1.04 | relative viability ([20]; first compound 0.2 µM): 0.985 | relative viability ([20]; first compound 0.6325 µM): 0.981 | relative viability ([20]; first compound 2 µM): 1.09 | relative viability ([21]; first compound 0.02 µM): 1.21 | relative viability ([21]; first compound 0.6325 µM): 0.971 | relative viability ([21]; first compound 2 µM): 0.704
